In paper PMC4249827, “A Novel CMKLR1 Small Molecule Antagonist Suppresses CNS Autoimmune Inflammatory Disease” (PLoS ONE, 2014):
Read-outs that look alike come from different tables or passages of the source.

Columns and labels:
[1] = test system: carnitine acetyletransferase; design: method as in PMID 3174803; details: cited from earlier work
[2] = test system: Bacillus anthracis lethal toxin; details: Cell-based (process); ref PubChem, 2014a; cited from earlier work
C57BL/6 mice [3] = test: Preliminary in vivo toxicity, daily s.c. dosing for 16 days; design: species or system mouse; details: s.c. daily for 16 days, doses up to at least 10 mg/kg per day
Description: Given the lack of adverse reactions in vivo, we next sought to test α-NETA for in vivo efficacy in the EAE model of MS.
The mice were then euthanized and vital organs weighed. Each symbol represents an individual mouse, and the bars indicate mean ± SEM, n = 3 mice per group. […] Control mice received either captisol vehicle or no treatment. […] For days 1–15, n = 52 mice per group; for days 16–27, n = 24–25 mice per group. * p<0.05 by Mann-Whitney U test.

Cholinesterase = molecular target: Cholinesterase; design: method as in Sastry et al., 1988a; ref 19; details: Purified enzyme; ref Sastry et al., 1988a; cited from earlier work
[4] = within 5 min; depending on the temperature of incubation
CXCR5 = CXCR5 (Homo sapiens, UniProt P32302); test: Transwell chemotaxis of CXCR5+ NC-37 cells to CXCL13
[5] = test system: Nuclear factor of activated T cells (NFAT); design: method as in PubChem, 2014a; details: Cell-based; ref PubChem, 2014a; cited from earlier work
C57BL/6 mice [6] = test: EAE induced by adoptive transfer of MOG-reactive lymphocytes in C57BL/6 mice; assay type: in vivo, mouse
Cytochrome p450 2C19 = details: cited from earlier work
GPR154 = test system: GPR154; design: method as in PubChem, 2014b; ref 24; details: Cell-based (GPCR); neuropeptide S-induced signaling; ref PubChem, 2014b; cited from earlier work
[7] = molecular target: Choline acetyltransferase; details: Purified enzyme; ref Sastry et al., 1988a; cited from earlier work
huCMKLR1 = molecular target: T1, huCMKLR1 (Homo sapiens, UniProt Q99788); test: β-arrestin2 (β-ARR2) enzymatic complementation assay, CMKLR1/CHO cells; assay type: cell-based; design: host or cells: CHO
T1 sequence (Q99788 1-373): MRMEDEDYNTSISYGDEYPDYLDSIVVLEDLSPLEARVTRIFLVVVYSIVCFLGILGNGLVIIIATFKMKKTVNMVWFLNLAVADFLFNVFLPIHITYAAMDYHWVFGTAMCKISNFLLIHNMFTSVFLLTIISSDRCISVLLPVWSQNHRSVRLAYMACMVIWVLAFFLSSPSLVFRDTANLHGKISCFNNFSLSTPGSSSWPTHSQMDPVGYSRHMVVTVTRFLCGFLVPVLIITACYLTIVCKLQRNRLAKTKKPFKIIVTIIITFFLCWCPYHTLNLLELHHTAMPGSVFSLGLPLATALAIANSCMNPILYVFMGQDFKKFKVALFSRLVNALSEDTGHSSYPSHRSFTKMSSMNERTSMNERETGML
Description: The engagement of a chemoattractant receptor by its cognate ligand stimulates the recruitment of β-arrestin to the carboxyl-terminus of the receptor, an event that results in receptor internalization and termination of G protein-mediated signaling. […] To test this, we used an enzymatic complementation assay (the β-ARR2 assay), whereby the complementary fragments from the β-gal active site are fused to the carboxyl-terminus of CMKLR1 and β-arrestin2. The special association of these molecules leads to enzyme activity, which is detected by a chemiluminescent substrate.

[8] = test system: Acetylcholine muscarinic M1 receptor; design: method as in PubChem, 2014a; ref 25; details: Cell-based (GPCR); Tested up to 35 µM; ref PubChem, 2014a; cited from earlier work
[9] = test system: MPP8 chromodomain/methylated histones; design: method as in PubChem, 2014b; details: Purified protein (binding); ref PubChem, 2014b; cited from earlier work
CCRL2 KO mice = test: EAE induced by active immunization in CCRL2 KO mice; assay type: in vivo, mouse
Cytochrome p450 1A2 = details: cited from earlier work
C57BL/6 mice [10] = test: EAE induced by active immunization with MOG35-55/CFA in C57BL/6 mice; assay type: in vivo, mouse

CXCR5, sequence (P32302 whole entry): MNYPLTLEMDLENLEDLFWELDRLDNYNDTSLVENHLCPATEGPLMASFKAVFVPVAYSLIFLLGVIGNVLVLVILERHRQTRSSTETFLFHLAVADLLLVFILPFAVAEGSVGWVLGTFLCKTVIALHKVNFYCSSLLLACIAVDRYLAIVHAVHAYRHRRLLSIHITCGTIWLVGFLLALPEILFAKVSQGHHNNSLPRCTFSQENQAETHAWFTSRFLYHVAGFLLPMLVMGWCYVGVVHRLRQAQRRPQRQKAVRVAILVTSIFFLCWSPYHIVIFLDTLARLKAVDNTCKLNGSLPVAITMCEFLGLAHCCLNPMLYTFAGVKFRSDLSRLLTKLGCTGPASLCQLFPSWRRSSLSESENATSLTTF

C[N+](C)(C)CCC(=O)c1cccc2ccccc12.[I-] [α-NETA, 2-(α-naphthoyl)ethyltrimethylammonium iodide]
activity against carnitine acetyletransferase [1]: inactive
IC50 [2]: 25 µM
in vivo tolerability (survival, weight gain, appearance, behavior, organ wet weight) (C57BL/6 mice [3]): well tolerated
IC50 (Cholinesterase): 84 µM
parent compound no longer detectable by mass spectrometry after dissolution in 10% captisol [4]: 40–60%
IC50 (CXCR5): ≥ 10 µM
inhibition of migration of CXCR5+ NC-37 cells to CXCL13 (CXCR5; 1, 3, and 10 µM): did not inhibit
IC50 [5]: 1.3 µM
suppression of clinical signs beyond first appearance of disease in control mice (C57BL/6 mice [6]; 10 mg/kg daily s.c.): completely suppressed clinical signs for an average of six days
severity of clinical disease (C57BL/6 mice [6]; 10 mg/kg daily s.c., day 15–19): significantly reduced
reduction of the incidence of EAE by day 24 (C57BL/6 mice [6]; 10 mg/kg daily s.c., did not reach statistical significance): ~25%
ability of MOG-reactive lymphocytes from treated donor mice to induce EAE by passive transfer (C57BL/6 mice [6]; donor mice treated once daily for ten days): fully capable of inducing EAE by passive transfer
IC50 (Cytochrome p450 2C19): ≥ 10 µM
IC50 (µM), Cytochrome p450 2C19 (Cytochrome p450 2C19): Inactive ^j
IC50 (GPR154): 32 µM
IC50 [7]: 9 µM
IC50 (huCMKLR1): 0.375 ± 0.042 µM
IC50 (huCMKLR1; IC50 (µM), β-arrestin, huCMKLR1, mean±SEM, n = 3-14 independent experiments): 0.38 µM
IC50 (µM), Acetylcholine muscarinic M1 receptor [8]: Inactive ^k
IC50 [9]: 10 µM
suppression of clinical signs beyond first appearance of disease in control CCRL2 KO mice (CCRL2 KO mice; 10 mg/kg daily s.c.): completely and significantly suppressed clinical signs for an average of four days
treated mice that did not develop EAE by day 20 (CCRL2 KO mice; CCRL2 KO mice, 10 mg/kg daily s.c.): 40%
severity of clinical disease (CCRL2 KO mice; CCRL2 KO mice, days 8-15 (except for day 10)): significantly reduced
IC50 (Cytochrome p450 1A2): 8 µM
mice that did not develop clinical EAE by day 27 (C57BL/6 mice [10]; 10 mg/kg daily s.c.): ~30%
suppression of clinical signs beyond first appearance of disease in control mice (C57BL/6 mice [10]; 10 mg/kg daily s.c.): completely suppressed clinical signs for an average of nine days
severity of clinical disease (C57BL/6 mice [10]; 10 mg/kg daily s.c., through day 25): significantly reduced
onset of EAE (C57BL/6 mice [10]; doses as low as 3 mg/kg daily s.c., not shown): significantly delayed the onset of EAE
effect on ongoing clinical EAE (C57BL/6 mice [10]; treatment initiated upon onset of clinical signs, data not shown): failed to reverse ongoing clinical EAE
